Measurements published in patent US20120128580A1, “PRESELECTION OF SUBJECTS FOR THERAPEUTIC TREATMENT WITH ELESCLOMOL BASED ON HYPOXIC STATUS” (SYNTA PHARMACEUTICALS CORP., priority 2010, published 2012).

Experiments:
[1] = system: non-small cell lung carcinoma (NSCLC); assay: Phase II study, elesclomol with paclitaxel and carboplatin versus paclitaxel and carboplatin alone; assay type: in vivo, human; conditions: previously untreated NSCLC Stage IIIB or IV, i.v. every three weeks for six cycles
Description: For example, a Phase II study was performed to test elesclomol in combination with paclitaxel and carboplatin, as compared to paclitaxel and carboplatin alone, in 86 subjects with previously untreated non-small cell lung carcinoma (NSCLC) and non-resectable, locally advanced, or metastatic disease (Stage IIIB or IV) were randomized 1:1 into treatment groups for treatment with carboplatnin plus elesclomol (CP+E) or carboplatnin alone (CP). Subjects were dosed intravenously with 200 mg/m^2 of paclitaxel and AUC=6 of carboplatnin either with or without 266 mg/m^2 of elesclomol every three weeks for six cycles, likely resulting in complete clearance of elesclomol between doses.

solid tumors = assay: Trial of elesclomol in subjects with solid tumors stratified by level of hypoxia; assay type: in vivo, human; conditions: elesclomol alone or in combination
Text: Subjects diagnosed with solid tumors are recruited for a study to determine the efficacy of elesclomol in the treatment of solid tumors, preferably tumors from the same tissue origin, e.g., breast, prostate, lung, liver, brain, colorectal, etc. Inclusion criteria include the presence of a solid tumor. Exclusion criteria include the presence of an ischemia related disease or disorder including, e.g., ischemic heart or vascular disease, poor circulation, diabetes, macular degeneration, recent stroke, or other ischemic events or conditions; or surgery planned during the duration of the trial. […]
All subjects are treated with elesclomol, either alone or in combination with one or more additional chemotherapeutic agents. […] Subjects are monitored for response to the agent throughout the trial, at the end of the trial, and at regular intervals after the conclusion of the trial using routine methods including, but not limited to, e.g., imaging, hematology, and physical examination. […] Preferably, the subjects continue to be monitored for outcomes beyond the formal end of the trial. […]
An analysis of the samples collected from subjects prior to and optionally during treatment is performed to determine the efficacy of elesclomol for the treatment of cancer based on the level of hypoxia of the tumor based on markers assessed prior to and optionally during the treatment of the subjects. […]

[2] = system: relapsed or refractory acute myeloid leukemia (AML); assay: Trial of elesclomol sodium in relapsed or refractory AML with low LDH; assay type: in vivo, human; conditions: baseline serum LDH ≤0.8 ULN, elesclomol sodium once-weekly, starting dose 200 mg/m^2
Description: Subjects are identified as having one of relapsed or refractory acute myeloid leukemia (AML). A subject is selected as being candidate for treatment with elesclomol based on appropriate inclusion or exclusion criteria. Routine assessments are made prior to treatment to characterize the disease state of the subject including, but not limited to, imaging studies, hematological studies, and physical examination. Additionally, coded serum sample from the subject is tested to determine the LDH level.
This trial is expected to be sufficiently powered with the enrollment of 36 patients with relapsed or refractory AML and total baseline serum LDH level less-than or equal to 0.8 upper limit of normal (ULN). Patients are treated with elesclomol sodium on a once-weekly schedule at a starting dose of 200 mg/m^2, with dose escalation planned based on safety and tolerability. The primary endpoints are to characterize the safety and tolerability of elesclomol sodium and to determine the pharmacokinetics of elesclomol and its metabolites in this patient population. Secondary endpoints include assessing the activity of elesclomol as a monotherapy in the treatment of AML.

[3] = Half-life of elesclomol in humans; assay type: in vivo; conditions: administered alone or with other chemotherapeutic agents
Text: Elesclomol has been tested or has been approved for testing in clinical trials for treatment of metastatic melanoma, prostate cancer, solid tumors, recurrent or persistent ovarian epithelial cancer, fallopian tube cancer, and primary peritoneal cancer. The half-life of elesclomol in humans has been determined to be about an hour when administered alone or with other chemotherapeutic agents (e.g., with paxitaxel or carboplatinin).

For `CN(NC(=O)CC(=O)NN(C)C(=S)c1ccccc1)C(=S)c1ccccc1` [Elesclomol, N-malonyl-bis(N′-methyl-N′-thiobenzoylhydrazide)], the “Median Progression Free Survival” value ([1]; High LDH) was 2.8 months, the “Median Progression Free Survival” value ([1]; Low LDH) was 4.6 months and the “response of subjects with a low level of hypoxia compared to a high level of hypoxia” value (solid tumors) was “better response”. For the same compound, the “response of subjects with low levels of hypoxia versus historical control populations” value [2] was “respond better” and the half-life [3] was “about an hour”.
